≈ marks a conversion by molar mass, not a printed value. Like-named read-outs stand apart in the source and are kept apart here.
Assays:
[1] = design: method as in PMID 29751694; conditions: cited from earlier work
[2] = design: method as in PMID 32599134, PMID 24015381; conditions: cited from earlier work
physchem = type: physicochemical
Protocol: A phase solubility diagram was used to estimate the stability constant (K) of the tacrolimus/HPβCD inclusion complex. The solubility measurements were carried out following the previous work of our research group, described by Anguiano-Igea et al.. This protocol was adjusted to the Higuchi and Connors phase solubility model. A solubility study was carried out by adding an excess amount of the tacrolimus powder to MilliQ® aqueous solutions containing increasing concentrations of HPβCD (from 0 to 400 mg/mL). The vials containing these suspensions were then shaken in a VWR incubated mini-shaker (VWR International, Radnor, PA, USA) at 25 °C and 250 rpm for 7 days until reaching an equilibrium. […]
Tacrolimus concentration was determined for each sample using an HPLC system (Agilent 1260 series; Agilent Technologies®, Santa Clara, CA, USA) equipped with a Diode Array Detector HS, a solvent delivery quaternary pump system, 400 bar maximum pressure and an autosampler. […] A 210-nm wavelength was employed for the tacrolimus quantification. […]
These constants values were calculated using the following Equation (1):S = S0 +(K1:1·S0 + K1:1·K1:2·S0·[HPβCD])·[HPβCD],(1) where S is the total solubility, S0 is the free drug solubility and K1:1 and K1:2 are the stability constants of the complex tacrolimus/HPβCD. […]

T cell proliferation = tested on: T cell proliferation; design: method as in PMID 22511024; conditions: cited from earlier work
[3] = NMR saturation transfer difference (STD) study of tacrolimus/HPβCD binding; conditions: D2O, read-out: Kd of tacrolimus/HPβCD binding equilibrium
Protocol: NMR experiments were conducted at two different temperature conditions, 278 and 298 K, on a Bruker NEO 17.6 T spectrometer (proton resonance 750 MHz) (Billerica, MA, USA), equipped with a ^1H/^13C/^15N triple resonance PA-TXI probe with a deuterium lock channel and a shielded Pulse Field Gradient (PFG) z-gradient. The spectrometer control software was TopSpin 4.0 (Billerica, MA, USA, 2020). The reported chemical shifts are referenced to the lock deuterium solvent. Spectra were processed and analyzed using Mestrenova v14.0 software (Mestrelab Research S.L., Santiago de Compostela, Spain, 2019).
One-dimensional saturation transfer difference ^1H spectra (STD) were measured. The experiment consisted of a selective saturation pulse train, a WET selective solvent suppression module and a 90-degree hard-pulse followed by fid (free induction decay) acquisition. The selective saturation consisted of a train of soft Gaussian-shaped pulses of 50-ms duration with a 1-ms interpulse delay. The selective saturation was applied during 2 s at a specific frequency of the ^1H spectrum, covering a region of the spectrum of ± 125 Hz around the chosen frequency (i.e., ± 0.17 ppm in a 750 spectrometer). The STD^off saturation was applied at 20 ppm. […] The STD^on and STD^off scans were measured in alternate scans and subtracted by the phase cycling, providing the subtracted STD^off-on spectra. […]

Row | SMILES | surface tension in solution [1] | water solubility [2] | K1:2 stability constant of tacrolimus/HPβCD complex (physchem) | solubility at 7 days (physchem) | immunosuppressive activity, times more potent than cyclosporine A (T cell proliferation) | Kd ([3]; 278 K, inferred from STD response) | Kd ([3]; 298 K, inferred from absence of STD response)
1 | CC(O)COC[C@H]1O[C@@H]2O[C@H]3[C@H](O)[C@@H](O)[C@@H](O[C@H]4[C@H](O)[C@@H](O)[C@@H](O[C@H]5[C@H](O)[C@@H](O)[C@@H](O[C@H]6[C@H](O)[C@@H](O)[C@@H](O[C@H]7[C@H](O)[C@@H](O)[C@@H](O[C@H]8[C@H](O)[C@@H](O)[C@@H](O[C@H]1[C@H](O)[C@H]2O)O[C@@H]8COCC(C)O)O[C@@H]7COCC(C)O)O[C@@H]6COCC(C)O)O[C@@H]5COCC(C)O)O[C@@H]4COCC(C)O)O[C@@H]3COCC(C)O (stereo partly drawn) [HPβCD, 2-hydroxypropyl-β-cyclodextrin] | 54.8–57.5 mN/m | – | – | – | – | – | –
2 | C=CC[C@@H]1/C=C(\C)C[C@H](C)C[C@H](OC)[C@H]2O[C@@](O)(C(=O)C(=O)N3CCCC[C@H]3C(=O)O[C@H](/C(C)=C/[C@@H]3CC[C@@H](O)[C@H](OC)C3)[C@H](C)[C@@H](O)CC1=O)[C@H](C)C[C@@H]2OC [Tacrolimus] | – | 1 to 12 µg/mL | 2.1 ± 0.6 M⁻¹ | 4 ± 0.67 µg/mL (≈ 4.97 µM) | 100 times | < 1 mM | > 10 mM

Source: paper PMC7911614, “Development and Characterization of a Tacrolimus/Hydroxypropyl-β-Cyclodextrin Eye Drop” (Pharmaceutics, 2021)
